Earlier results as cited in US6443892B1, “Sweat collecting device and methods for use and detection of tampering” (The United States of America as represented by the …, priority 2000, dated 2002).

How the values were obtained:
[1] = basic media
[2] = hydrophilic dye; hydration of inner pad not reported

SMILES	earliest collection time with detectable concentrations after drugs placed on outside of membrane [1]	CFWO through membrane [2]
CC(=O)Oc1ccc2c3c1O[C@H]1[C@@H](OC(C)=O)C=C[C@H]4[C@@H](C2)N(C)CC[C@@]341 [heroin]	approximately 30 seconds	–
CN[C@@H](C)Cc1ccccc1 [methamphetamine]	approximately 30 seconds	–
CCN(CC)c1ccc2c(-c3ccccc3C(=O)O)c3ccc(=[N+](CC)CC)cc-3oc2c1.[Cl-] [rhodamine B]	–	No CFWO was observed
